# “And” between values parts separate entries of the source, which are not always exact repeats. Equal entries are not always repeated. Where two headings read alike, the source gives them in different places.
# Columns and labels:
# [1] = tested on: SK-OV-3 cells (ovarian carcinoma); assay: MTS cytotoxicity assay, SK-OV-3; assay type: cell-based, human; details: read-out: IC50 (mean ± SD)
# Method: (§1) Human lung cancer (A549), human normal lung epithelial cell line (BEAS-2B), human stomach cancer (SGC-7901) and human ovarian cancer (SK-OV-3) were purchased from ATCC, whereas cisplatin-resistant SK-OV-3 cells (SK-OV-3/DDP) were kindly provided by Chinese Academy of Medical Sciences (Beijing, China). Cells were grown in DMEM or RPMI-1640 medium (Hyclone, USA) containing 10% fetal bovine serum. Both media were supplemented with 100 units/ml of penicillin and 100 μg/ml of streptomycin. Cells were maintained at 37°C in a humidified incubator with an atmosphere of 5% CO2.
# (§2) Cytotoxicity was determined by performing MTS assay. Briefly, 100 μl of cells suspension were seeded in 96-well cell culture plates and allowed to adhere overnight. The cells were treated with drugs for 48 hours, and then 20 μl of CellTiter 96® AQueous One Solution Reagent (Promega, Madison, USA) was added and the cells were further incubated at 37°C for 1–2 h. Cell viability was measured by reading the absorbance at a wavelength of 490 nm. Concentrations of 50% inhibition of growth (IC50) were calculated on the basis of the relative survival curve.
# [2] = tested on: BEAS-2B normal lung epithelial cells; assay: MTS cytotoxicity assay, BEAS-2B; assay type: cell-based, human; details: read-out: IC50 (mean ± SD)
# Method: as §1, §2
# [3] = tested on: SGC-7901 cells (gastric carcinoma); assay: MTS cytotoxicity assay, SGC-7901; assay type: cell-based, human; details: read-out: IC50 (mean ± SD)
# Method: as §1, §2
# [4] = tested on: A549 cells (non-small cell lung carcinoma); assay: MTS cytotoxicity assay, A549; assay type: cell-based, human; details: read-out: IC50 (mean ± SD)
# Method: as §1, §2
# [5] = tested on: BEAS-2B normal human lung bronchial epithelial cells; assay: Cell apoptosis assay (Annexin-V-FITC/Propidium iodide, flow cytometry), BEAS-2B; assay type: cell-based; details: t = 24 h, n = 3
# Method: (§3) Human lung cancer (A549), human normal lung epithelial cell line (BEAS-2B), human stomach cancer (SGC-7901) and human ovarian cancer (SK-OV-3) were purchased from ATCC, whereas cisplatin-resistant SK-OV-3 cells (SK-OV-3/DDP) were kindly provided by Chinese Academy of Medical Sciences (Beijing, China). Cells were grown in DMEM or RPMI-1640 medium (Hyclone, USA) containing 10% fetal bovine serum. Both media were supplemented with 100 units/ml of penicillin and 100 μg/ml of streptomycin. Cells were maintained at 37°C in a humidified incubator with an atmosphere of 5% CO2. To analyze the cells for apoptosis, cells were plated and allowed to adhere overnight. Cells were treated with drugs indicated for 24 hours and then analyzed for apoptosis using Annexin-V-FITC/Propidium iodide staining. Cells were trypsinized, pelleted, washed in PBS, and resuspended in 1×binding buffer containing Annexin-V-FITC and propidium iodide (BD Pharmingen) according to the manufacturer's instructions. The samples were analyzed for the apoptosis using a FACSCalibur flow cytometer (BD Biosciences, Franklin Lakes, NJ).
# [6] = tested on: cisplatin-resistant SK-OV-3 cells (SK-OV-3/DDP); assay: MTS cytotoxicity assay, cisplatin-resistant SK-OV-3/DDP; assay type: cell-based, human; details: for IC50: SK-OV-3/DDP cisplatin-resistant, MTS, t = 48 h, n = 3, read-out: IC50 (mean ± SD); for Resistance Index: ratio of IC50 value of resistant cells (SK-OV-3/DDP) to that of sensitive cells (SK-OV-3)
# Method: Cross-resistance profile of the complexes 1a and 2a was evaluated. Resistance Index was defined as the ratio of IC50 value of resistant cells to that of sensitive cells. SK-OV-3 and cisplatin-resistant SK-OV-3 cells (SK-OV-3/DDP) cell lines were chosen for MTS assay because drug resistance frequently occurred in the chemotherapy of ovarian tumors. […] The results may be attributed to the synergistic effect between the platinum pharmacophores and DCA released by the hydrolysis of 1a and 2a in the cells.
# as §1, §2
# A549 cells = assay: Cell apoptosis assay (Annexin-V-FITC/Propidium iodide, flow cytometry), A549; assay type: cell-based, human; details: t = 24 h, n = 3
# Method: as §3
# Solubility in solvents = assay type: physicochemical
# Hydrolysis rate by HPLC = assay type: physicochemical; details: 1:10 (v/v) solution of water and methanol, within 4 hours
# Method: Both complexes were nearly insoluble in water or ethanol (≈0.1 mg/ml) and slightly soluble in methanol and DMSO, but soluble in polyethyleneglycol 400 which was chosen as the solvent to make the stock solutions of the complexes for the following biological testing. The hydrolysis rate of the complexes in 1:10 (v/v) solution of water and methanol determined by HPLC was less than 2% within 4 hours and the hydrolysis products were, as expected, dichloroacetate and 1b for complex 1a, or 2b for complex 2a. Complexes 1b and 2b were also synthesized for comparison in HPLC measurements as well as in biological tests. As 1b and 2b were found very soluble in water (>25 mg/ml) compared with 1a or 2a, another synthetic reaction was employed to produce the desired complexes. Accordingly complexes 1b and 2b also have two positional isomeric forms. All the complexes used in our studies were, in fact, a mixture of two isomeric forms.
# An Agilent Zorbax SB-C18 column (4.6 × 250 mm, 5 μm) was used with CH3OH/H2O as the mobile phase. The flow rate was 1.0 ml/min, and the column temperature is 40°C. The detection wavelength was 238 nm and the injection volume was 10 μl.
# [7] = SK-OV-3 (sensitive), MTS, t = 48 h, n = 3, Table 3 cross-resistance experiment
# [8] = SK-OV-3, MTS, t = 48 h, n = 3, Table 1
# [9] = BEAS-2B normal cells, MTS, t = 48 h, n = 3
SMILES,"IC50 [1, 7]","IC50 [1, 8]","IC50 [2, 9]","IC50 ([3]; SGC-7901, MTS, t = 48 h, n = 3)","IC50 ([4]; A549, MTS, t = 48 h, n = 3)",IC50 [6],Resistance Index [6],further results
"N.N.[Cl][Pt][Cl] [Cisplatin, cisplatin, reference compound]",5.15 ± 1.38 µM,5.04 ± 0.25 µM,11.7 ± 0.51 µM,13.6 ± 1.03 µM,14.8 ± 1.02 µM,19.2 ± 0.94 µM,≈4,"Apoptosis, % (mean ± SD) ([5]; 12.5 μM): 2.64 ± 1.43%; Apoptosis, % (mean ± SD) ([5]; 25 μM): 5.86 ± 1.30%; Apoptosis, % (mean ± SD) ([5]; 50 μM): 38.93 ± 5.26%; Apoptosis, % (mean ± SD) ([5]; 100 μM): 42.80 ± 3.40%; Apoptosis, % (mean ± SD) (A549 cells; A549, 12.5 μM): 20.09 ± 3.06%; Apoptosis, % (mean ± SD) (A549 cells; A549, 25 μM): 32.84 ± 5.48%; Apoptosis, % (mean ± SD) (A549 cells; A549, 50 μM): 50.51 ± 6.42%; Apoptosis, % (mean ± SD) (A549 cells; A549, 100 μM): 56.28 ± 6.91%"
N.NC1CCCCC1.O=C1[O][Pt][O]C(=O)C12CC(O)C2 [Complex 2b],,78.2 ± 1.85 µM,75 ± 4.83 µM,69.5 ± 2.31 µM,71.5 ± 5.21 µM,,,Solubility in water (Solubility in solvents): > 25 mg/mL
N.NC1CCCC1.O=C1[O][Pt][O]C(=O)C12CC(O)C2 [Complex 1b],,74.2 ± 2.64 µM,79.9 ± 2.57 µM,56.2 ± 4.88 µM,61.5 ± 7.98 µM,,,Solubility in water (Solubility in solvents): > 25 mg/mL
"O=C(O)C(Cl)Cl [DCA, Dichloroacetate]",,,,,,,,"IC50 ([1]; Homo sapiens, SK-OV-3, 48 h): > 200 µM; IC50 ([2]; Homo sapiens, BEAS-2B, 48 h): > 200 µM; IC50 ([3]; Homo sapiens, SGC-7901, 48 h): > 200 µM; IC50 ([4]; Homo sapiens, A549, 48 h): > 200 µM"
"N.N.O=C([O-])C1(C(=O)[O-])CCC1.[Pt+2] [Carboplatin, carboplatin, reference compound]",,65.3 ± 3.55 µM,74.4 ± 2.51 µM,127 ± 11.8 µM,141 ± 11.3 µM,,,
N.NC1CCCC1.O=C(OC1CC2(C1)C(=O)[O][Pt][O]C2=O)C(Cl)Cl [Complex 1a],17.8 ± 3.97 µM,18.1 ± 0.85 µM,61.5 ± 1.5 µM,21.9 ± 1.96 µM,17.1 ± 1.55 µM,18.1 ± 2.41 µM,≈1,"Apoptosis, % (mean ± SD) ([5]; 12.5 μM): 0.71 ± 0.45%; Apoptosis, % (mean ± SD) ([5]; 25 μM): 1.24 ± 1.73%; Apoptosis, % (mean ± SD) ([5]; 50 μM): 1.27 ± 0.92%; Apoptosis, % (mean ± SD) ([5]; 100 μM): 2.88% and 2.88 ± 2.15%; Apoptosis, % (mean ± SD) (A549 cells; A549, 12.5 μM): 18.93% and 18.93 ± 3.83%; Apoptosis, % (mean ± SD) (A549 cells; A549, 25 μM): 26.76 ± 2.33%; Apoptosis, % (mean ± SD) (A549 cells; A549, 50 μM): 40.93 ± 9.66%; Apoptosis, % (mean ± SD) (A549 cells; A549, 100 μM): 67.46 ± 8.06%; Hydrolysis rate (Hydrolysis rate by HPLC): less than 2%"
N.NC1CCCCC1.O=C(OC1CC2(C1)C(=O)[O][Pt][O]C2=O)C(Cl)Cl [Complex 2a],10.1 ± 2.38 µM,11.5 ± 0.91 µM,52.1 ± 3.12 µM,16.7 ± 0.82 µM,15.3 ± 1.12 µM,11.1 ± 0.63 µM,≈1,Hydrolysis rate (Hydrolysis rate by HPLC): less than 2%

# — publication PMC3746205, “Two mixed-NH3/amine platinum (II) anticancer complexes featuring a dichloroacetate moiety in the leaving group” (Scientific Reports, 2013)
